Experimental data published in ChEMBL document CHEMBL1147134, “Indium-labeled macrocyclic conjugates of naltrindole: high-affinity radioligands for in vivo studies of peripheral delta opioid receptors” (J Med Chem, 2007).

Columns and labels:
Mu-type opioid receptor = Mu-type opioid receptor (Cavia porcellus, UniProt P97266); assay: Displacement of [3H]DAMGO from mu opioid receptor in guinea pig brain membranes; type: cell membranes, Membrane
[1] = Selectivity for mouse brain delta opioid receptor over guinea pig brain kappa opioid receptor
[2] = Selectivity for mouse brain delta opioid receptor over guinea pig brain mu opioid receptor
[3] = target: Kappa-type opioid receptor (Cavia porcellus, UniProt P41144); assay: Displacement of [3H]U-69593 from kappa opioid receptor in guinea pig brain membranes; type: cell membranes, Membrane
[4] = target: Delta-type opioid receptor (Mus musculus, UniProt P32300); assay: Displacement of [3H]NTI from delta opioid receptor in CD1 mouse brain membranes; type: cell membranes, Membrane
[5] = Lipophilicity, log D at pH7.4; type: physicochemical; conditions: buffer, pH 7.4

Chain of Kappa-type opioid receptor (P41144 whole entry): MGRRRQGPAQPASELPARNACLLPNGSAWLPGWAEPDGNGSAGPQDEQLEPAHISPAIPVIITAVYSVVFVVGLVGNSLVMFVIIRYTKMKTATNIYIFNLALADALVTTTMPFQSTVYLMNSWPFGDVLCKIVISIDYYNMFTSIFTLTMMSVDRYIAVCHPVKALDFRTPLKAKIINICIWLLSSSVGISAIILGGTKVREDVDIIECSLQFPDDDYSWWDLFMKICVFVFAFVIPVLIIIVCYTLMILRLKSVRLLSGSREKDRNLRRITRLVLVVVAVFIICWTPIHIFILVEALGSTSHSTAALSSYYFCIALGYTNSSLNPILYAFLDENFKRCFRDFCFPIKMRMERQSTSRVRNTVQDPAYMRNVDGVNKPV
Chain of Mu-type opioid receptor (P97266 whole entry): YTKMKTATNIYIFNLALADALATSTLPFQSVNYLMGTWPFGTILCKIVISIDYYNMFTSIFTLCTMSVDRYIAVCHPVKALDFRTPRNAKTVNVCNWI
Chain of Delta-type opioid receptor (P32300 whole entry): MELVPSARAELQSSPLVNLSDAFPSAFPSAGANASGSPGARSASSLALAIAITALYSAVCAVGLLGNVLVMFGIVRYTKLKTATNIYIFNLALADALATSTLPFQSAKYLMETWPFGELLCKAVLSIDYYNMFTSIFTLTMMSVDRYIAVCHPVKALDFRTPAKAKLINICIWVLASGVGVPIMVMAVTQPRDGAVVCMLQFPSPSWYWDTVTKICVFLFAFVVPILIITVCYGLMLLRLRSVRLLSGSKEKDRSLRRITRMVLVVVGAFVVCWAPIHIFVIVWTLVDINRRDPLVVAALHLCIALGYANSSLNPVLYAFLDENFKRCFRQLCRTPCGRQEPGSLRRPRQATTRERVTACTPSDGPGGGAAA

SMILES: O=C(O)CN1CCN(CCn2c3c(c4ccccc42)C[C@@]2(O)[C@H]4Cc5ccc(O)c6c5[C@@]2(CCN4CC2CC2)[C@@H]3O6)CCN(CC(=O)O)CCN(CC(=O)O)CC1
- Ki (Mu-type opioid receptor): 1750 nM
- Ratio Ki [1]: 410
- Ratio Ki [2]: 357
- Ki [3]: 2010 nM
- Ki [4]: 4.9 nM

SMILES: Oc1ccc2c3c1O[C@H]1c4[nH]c5ccccc5c4C[C@@]4(O)[C@@H](C2)N(CC2CC2)CC[C@]314 [NALTRINDOLE]
- logD [5]: 2.41
- Ki (Mu-type opioid receptor): 33.9 nM
- Ki [3]: 14.9 nM

SMILES: O=C(O)CN1CCN(CCCCCn2c3c(c4ccccc42)C[C@@]2(O)[C@H]4Cc5ccc(O)c6c5[C@@]2(CCN4CC2CC2)[C@@H]3O6)CCN(CC(=O)O)CCN(CC(=O)O)CC1
- Ki (Mu-type opioid receptor): 48.2 nM
- Ratio Ki [1]: 131
- Ratio Ki [2]: 241
- Ki [3]: 26.2 nM
- Ki [4]: 0.2 nM
